Measured values: patent US10322125B2, “TGF-beta enhancing compositions for cartilage repair and methods related thereto” (EMORY UNIVERSITY, priority 2013, dated 2019)

System: 3TP-Lux luciferase reporter (TGF-β-responsive region of the PAI-1 gene) in C2C12 cells
Assay: C2C12 cell-based Dual-Luciferase reporter screening assay for TGF-β activity (3TP-Lux)
Set-up: species or system mouse
Conditions: FIG. 6
Description: The C2C12 cells, a mouse myoblast cell line, were obtained from the American Type Culture Collection (ATCC, Manassas, 8 VA). Cells were grown in Dulbecco's modified Eagle medium (DMEM, Gibco Life Technologies, Rockville, Md.) with 10% non heat inactivated fetal bovine serum (Atlanta Biologicals, Norcross, Ga.). The C2C12 cells at passages 4 to 7 were subcultured in T-75 cm2 flasks at 37° C. in a humidified atmosphere containing 5% CO2. When the flasks reached 80% confluence, the cells were trypsinized and seeded in triplicate at 50,000 cells/well in a 12-well plate for the Dual-Luciferase reporter assay.
The C2C12 cells were seeded at a 50,000 cell/well in 12-well plates on day 1. […]
For each well, a total of 1 μg DNA was used for the cotransfection and concentration of pGL4.74 Renilla luciferase vector was 1/15 of 3TP-Lux reporter plasmid. […] On day 5, the luciferase activity was measured using the luciferase assay kit (Promega, Madison, Wis.) according to the manufacturer's instructions on a luminescence reader (VictorTMX Light, PerkinElmer Life and Analytical Sciences, Waltham, Mass.). […]

**Q.** What does the source list for “TGF-β: Transforming growth factor beta, a secreted protein; cells were treated with TGF-β1 in the reporter assay”?
**A.** reporter response at higher TGF-β doses (doses ranging from 10 ng/ml to 100 ng/ml of TGF-β, compared with 5 ng/ml dose, DMSO instead of compounds): did not increase reporter response beyond 5 ng/ml dose; TGF-β dose at which maximum reporter response was reached (luciferase reporter assay, DMSO solvent instead of compounds): 5 ng/mL
